Experimental data: paper PMC9861162 (Pharmaceuticals, 2022)
pIC50: −log10 of the molar value.

How the values were obtained:
[1] = biological target: T1, CYP2A6 (Homo sapiens, UniProt P11509); test: in vitro CYP450 metabolism inhibition assay in human liver microsomes, CYP2A6 (coumarin); details: HLM, substrate coumarin; figure in parentheses not defined
T1 sequence (P11509 1-494): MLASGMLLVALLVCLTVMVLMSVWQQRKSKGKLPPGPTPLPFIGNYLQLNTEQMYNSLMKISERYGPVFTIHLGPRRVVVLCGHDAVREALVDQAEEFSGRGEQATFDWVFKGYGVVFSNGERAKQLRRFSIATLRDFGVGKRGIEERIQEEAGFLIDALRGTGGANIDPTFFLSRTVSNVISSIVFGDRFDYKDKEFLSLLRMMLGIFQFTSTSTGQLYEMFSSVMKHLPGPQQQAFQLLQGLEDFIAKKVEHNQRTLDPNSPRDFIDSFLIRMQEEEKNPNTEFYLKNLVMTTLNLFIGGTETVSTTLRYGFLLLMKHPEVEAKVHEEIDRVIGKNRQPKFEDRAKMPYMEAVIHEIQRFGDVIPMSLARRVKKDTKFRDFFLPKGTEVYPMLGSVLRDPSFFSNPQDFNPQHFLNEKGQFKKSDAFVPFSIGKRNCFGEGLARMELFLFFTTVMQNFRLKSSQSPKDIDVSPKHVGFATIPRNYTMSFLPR
Protocol: (§1) The incubation conditions employed for each CYP450 isoform were performed, as previously described.
(§2) Buffer solution (0.1 mol/L aqueous phosphate buffer, pH 7.4, 69 µL), NADPH-regenerating solutions (10 µL solution A: 26 mmol/L NADP+, 66 mmol/L glucose-6-phosphate, and 66 mmol/L MgCl2; 2 µL solution B: 40 U/mL glucose-6-phosphate dehydrogenase in 5 mmol/L sodium citrate), and deionized water (69 µL) were added, in a total volume of 150 μL. The tubes were vortex-mixed and preincubated with continuous gentle shaking for 5 min at 37 °C in a shaking water bath. Reactions were initiated by the addition of 50 µL of HLM solution in the tubes which were gently mixed by hand and incubated with continuous gentle shaking at 37 °C. Aliquots of 200 µL ice-cold solvent (Table 1) containing IS (1 µg/mL) were added. […] The supernatants were transferred to glass autosampler vials and submitted to LC-MS/MS analysis (5 µL injection volume) to monitor the substrate metabolite formation.

[2] = biological target: T2, CYP1A2 (Homo sapiens, UniProt P05177); set-up: method as in PMID 25429674; details: ref [9]; cited from earlier work
T2 sequence (P05177 1-516): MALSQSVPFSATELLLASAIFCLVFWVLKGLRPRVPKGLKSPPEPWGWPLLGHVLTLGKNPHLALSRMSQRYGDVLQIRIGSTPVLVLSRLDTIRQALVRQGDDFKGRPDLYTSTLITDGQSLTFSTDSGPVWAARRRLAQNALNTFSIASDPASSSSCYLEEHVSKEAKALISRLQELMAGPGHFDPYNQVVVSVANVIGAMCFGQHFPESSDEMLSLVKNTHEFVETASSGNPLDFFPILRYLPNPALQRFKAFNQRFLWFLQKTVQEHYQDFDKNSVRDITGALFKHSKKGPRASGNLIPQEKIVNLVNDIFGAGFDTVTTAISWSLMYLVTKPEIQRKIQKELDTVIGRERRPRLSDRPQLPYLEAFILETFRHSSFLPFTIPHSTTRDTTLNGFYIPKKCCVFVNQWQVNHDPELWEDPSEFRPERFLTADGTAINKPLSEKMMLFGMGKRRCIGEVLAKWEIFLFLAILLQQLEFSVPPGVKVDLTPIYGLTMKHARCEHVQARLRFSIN

[3] = test system: CYP3A; details: clinical DDI studies; ref [9]; cited from earlier work
[4] = test system: CYP3A; details: ref [9]; cited from earlier work
[5] = test system: CYP1A1; set-up: method as in PMID 25429674; details: ref [9]; cited from earlier work
[6] = biological target: T1, CYP2A6; set-up: method as in PMID 25429674; details: ref [9]; cited from earlier work
[7] = test system: CYP3A4/5; test: in vitro CYP450 metabolism inhibition assay in human liver microsomes, CYP3A (midazolam or nifedipine); details: human, microsomes, pH 7.4
Protocol: as §1, §2

[8] = test system: CYP3A4; details: cited from earlier work
[9] = biological target: T3, CYP2C8 (Homo sapiens, UniProt P10632); set-up: method as in Hua et al. [19]; details: by CYP2C8; ref Hua et al. [19]; cited from earlier work
T3 sequence (P10632 1-490): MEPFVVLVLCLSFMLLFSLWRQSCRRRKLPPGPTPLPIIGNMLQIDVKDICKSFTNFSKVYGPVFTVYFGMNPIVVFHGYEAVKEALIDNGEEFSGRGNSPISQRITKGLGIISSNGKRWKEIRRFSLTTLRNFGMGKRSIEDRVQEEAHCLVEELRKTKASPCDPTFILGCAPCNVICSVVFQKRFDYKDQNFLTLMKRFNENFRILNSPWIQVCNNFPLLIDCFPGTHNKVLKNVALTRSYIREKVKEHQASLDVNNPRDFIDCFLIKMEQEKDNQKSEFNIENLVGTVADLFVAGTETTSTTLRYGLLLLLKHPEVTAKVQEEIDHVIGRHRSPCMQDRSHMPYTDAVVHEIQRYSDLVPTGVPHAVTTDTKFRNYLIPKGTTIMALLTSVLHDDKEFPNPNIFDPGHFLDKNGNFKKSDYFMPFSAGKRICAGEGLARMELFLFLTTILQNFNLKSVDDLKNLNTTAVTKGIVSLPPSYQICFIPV

[10] = biological target: T2, CYP1A2; details: cited from earlier work
[11] = test system: CYP2B6; set-up: method as in PMID 25429674; details: ref [9]; cited from earlier work
[12] = biological target: CYP2D6 (Homo sapiens, UniProt P10635); set-up: method as in PMID 25429674; details: ref [9]; cited from earlier work
Chain of CYP2D6 (P10635 whole entry): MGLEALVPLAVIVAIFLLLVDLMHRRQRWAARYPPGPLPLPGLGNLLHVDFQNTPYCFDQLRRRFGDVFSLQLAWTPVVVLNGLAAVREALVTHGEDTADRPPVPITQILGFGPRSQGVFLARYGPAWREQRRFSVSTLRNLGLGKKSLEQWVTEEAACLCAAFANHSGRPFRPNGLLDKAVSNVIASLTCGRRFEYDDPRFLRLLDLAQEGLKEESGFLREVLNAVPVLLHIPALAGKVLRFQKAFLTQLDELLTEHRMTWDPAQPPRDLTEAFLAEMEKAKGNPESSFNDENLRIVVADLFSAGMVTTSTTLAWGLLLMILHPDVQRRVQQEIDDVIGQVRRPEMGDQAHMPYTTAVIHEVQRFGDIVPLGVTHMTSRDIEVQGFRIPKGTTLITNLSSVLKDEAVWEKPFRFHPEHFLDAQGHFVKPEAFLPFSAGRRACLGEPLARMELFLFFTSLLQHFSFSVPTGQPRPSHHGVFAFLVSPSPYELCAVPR

[13] = biological target: CYP2C19 (Homo sapiens, UniProt P33261); set-up: method as in PMID 25429674; details: ref [9]; cited from earlier work
Chain of CYP2C19 (P33261 whole entry): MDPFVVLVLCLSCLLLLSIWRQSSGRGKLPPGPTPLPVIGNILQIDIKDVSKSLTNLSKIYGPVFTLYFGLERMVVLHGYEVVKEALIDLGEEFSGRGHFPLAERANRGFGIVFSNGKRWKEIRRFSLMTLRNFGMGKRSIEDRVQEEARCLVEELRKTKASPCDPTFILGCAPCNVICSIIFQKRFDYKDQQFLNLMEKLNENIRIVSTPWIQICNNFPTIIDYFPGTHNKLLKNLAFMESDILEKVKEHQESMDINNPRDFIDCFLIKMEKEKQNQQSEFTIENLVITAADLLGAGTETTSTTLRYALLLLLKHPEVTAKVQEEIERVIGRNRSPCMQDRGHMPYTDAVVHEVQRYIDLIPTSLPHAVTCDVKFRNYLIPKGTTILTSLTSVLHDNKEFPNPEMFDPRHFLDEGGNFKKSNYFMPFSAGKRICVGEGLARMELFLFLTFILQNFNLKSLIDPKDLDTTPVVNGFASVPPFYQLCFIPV

Compound: N[C@@H]1C[C@H]1c1ccccc1 (racemic) [Tranylcypromine, reference compound]
- pIC50 [1]: 6.10

Compound: CC(=O)N1CCN(c2ccc(OCC3COC(Cn4ccnc4)(c4ccc(Cl)cc4Cl)O3)cc2)CC1 (stereo not shown) [Ketoconazole]
- in vitro inhibition of CYP1A2 [2]: moderately inhibits
- clinical CYP3A inhibitor strength [3]: moderate to strong CYP3A inhibitors
- in vitro inhibition of CYP3A [4]: strongly inhibits
- in vitro inhibition of CYP1A1 [5]: strongly inhibits
- in vitro inhibition of CYP2A6 [6]: moderately inhibits
- pIC50 [7]: > 8.00

Compound: Cc1ncc2n1-c1ccc(Cl)cc1C(c1ccccc1F)=NC2 [Midazolam]
- fm (fraction metabolized) [8]: 0.88

Compound: CC(=O)O[C@H]1C(=O)[C@@]2(C)[C@H]([C@H](OC(=O)c3ccccc3)[C@]3(O)C[C@H](OC(=O)[C@H](O)[C@@H](NC(=O)c4ccccc4)c4ccccc4)C(C)=C1C3(C)C)[C@]1(OC(C)=O)CO[C@@H]1C[C@@H]2O [Paclitaxel]
- fm (fraction metabolized) [9]: 0.5

Compound: CCOc1ccc(NC(C)=O)cc1 [Phenacetin]
- fm (fraction metabolized) [10]: 0.71

Compound: OC(Cn1cncn1)(Cn1cncn1)c1ccc(F)cc1F [fluconazole]
- clinical CYP3A inhibitor strength [3]: moderate to strong CYP3A inhibitors
- in vitro inhibition of CYP3A [4]: moderately inhibits

Compound: CCC(C)n1ncn(-c2ccc(N3CCN(c4ccc(OCC5COC(Cn6cncn6)(c6ccc(Cl)cc6Cl)O5)cc4)CC3)cc2)c1=O (stereo not shown) [itraconazole]
- clinical CYP3A inhibitor strength [3]: moderate to strong CYP3A inhibitors
- in vitro inhibition of CYP3A [4]: strongly inhibits
- in vitro inhibition of CYP2B6 [11]: strongly inhibits

Compound: Clc1ccc(COC(Cn2ccnc2)c2ccc(Cl)cc2Cl)c(Cl)c1 (stereo not shown) [miconazole]
- in vitro inhibition of CYP3A [4]: strongly inhibits
- in vitro inhibition of CYP2D6 [12]: strongly inhibits
- in vitro inhibition of CYP2B6 [11]: strongly inhibits
- in vitro inhibition of CYP2C19 [13]: strongly inhibits
- in vitro inhibition of CYP2A6 [6]: strongly inhibits

Compound: CC[C@@H]([C@H](C)O)n1ncn(-c2ccc(N3CCN(c4ccc(OC[C@@H]5CO[C@@](Cn6cncn6)(c6ccc(F)cc6F)C5)cc4)CC3)cc2)c1=O [posaconazole]
- clinical CYP3A inhibitor strength [3]: moderate to strong CYP3A inhibitors
- in vitro inhibition of CYP3A [4]: strongly inhibits
